“And” between values parts separate entries of the source, which are not always exact repeats. Identical values can stand only once.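 Assay format: 96-well plates, 48-hour exposure. The concentration for 50% growth inhibition is given as GI50. At the TGI there is no net growth.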
Assays:
Assay in all cases: NCI tumour cell line growth inhibition, 48 h
K-562 leukemia = system: K-562 leukemia
OVCAR-4 ovarian = system: OVCAR-4 ovarian
LOX IMVI melanoma = system: LOX IMVI melanoma
UO-31 renal = system: UO-31 renal
OVCAR-8 ovarian = system: OVCAR-8 ovarian
NCI-H460 lung = system: NCI-H460 lung
KM12 colon = system: KM12 colon
SF-295 CNS = system: SF-295 CNS
HOP-62 NSCLC = system: HOP-62 NSCLC
OVCAR-3 ovarian = system: OVCAR-3 ovarian

Structure (SMILES) | GI50 (K-562 leukemia) [µM] | TGI (K-562 leukemia) [µM] | GI50 (OVCAR-4 ovarian) | TGI (OVCAR-4 ovarian) | GI50 (LOX IMVI melanoma) | TGI (LOX IMVI melanoma) | GI50 (UO-31 renal) | TGI (UO-31 renal) | GI50 (OVCAR-8 ovarian) | TGI (OVCAR-8 ovarian) | GI50 (NCI-H460 lung) | TGI (NCI-H460 lung) | GI50 (KM12 colon) | TGI (KM12 colon) | GI50 (SF-295 CNS) | TGI (SF-295 CNS) | GI50 (HOP-62 NSCLC) | TGI (HOP-62 NSCLC) | GI50 (OVCAR-3 ovarian) | TGI (OVCAR-3 ovarian)
COc1cc(OC)c(C(=O)/C=C/c2cc3c(cc2OCc2ccccc2)OC(C)(C)CC3)cc1CC=C(C)C | 4.26 | > 25 | 4.06 µM | 14.3 µM | 3.25 µM | 7.17 µM | 13 µM | > 25 µM | 4.14 µM | > 25 µM | 4.38 µM | 11.8 µM | 3.85 µM | 8.63 µM | 4.56 µM | 15.8 µM | 6.78 µM | 13.5 µM | 4.89 µM | 13.1 µM
CCNC(=O)COc1ccc(Br)cc1Br |  | > 100 |  | > 100 µM |  | > 100 µM |  | > 100 µM |  |  |  | > 100 µM |  | > 100 µM |  | > 100 µM |  | > 100 µM |  | > 100 µM
CC1/C=C/[C@@]2(C)CCC(C(C)(C)O)C2C(O)C[C@](C)(O)/C=C/C1 (stereo partly drawn) |  | > 100 |  | > 100 µM |  | > 100 µM |  | > 100 µM |  | > 100 µM |  | > 100 µM |  | > 100 µM |  | > 100 µM |  | > 100 µM |  | > 100 µM
CC(=O)N/N=C1\CC(C)(C)C2CCC1C2 (stereo not drawn) |  | > 100 |  | > 100 µM |  | > 100 µM |  | > 100 µM |  | > 100 µM |  | > 100 µM |  | > 100 µM |  | > 100 µM |  | > 100 µM |  | > 100 µM
COc1ccc(S(=O)(=O)N2CCN(C(=O)c3ccc(-c4ccccc4)cc3)CC2C(=O)NO)cc1 (stereo not drawn) |  |  | 3.42 µM and 27.1 µM | 12.5 µM and > 100 µM |  |  |  | 10.4 µM and > 100 µM |  | 12.5 µM and > 100 µM | 3.62 µM and 29.3 µM | 12.5 µM and > 100 µM |  |  | 3.85 µM and 25.7 µM | 12.5 µM and > 100 µM |  |  | 3.88 µM and 11.2 µM | 11.2 µM and 47.6 µM
C=C(CC(NC(=O)c1ccc(C(CC)Cc2cnc3nc(N)nc(N)c3n2)cc1)C(=O)O)C(=O)O (stereo not drawn) |  | > 100 | > 100 µM | > 100 µM |  | > 100 µM | 0.0271 µM | > 100 µM |  | > 100 µM |  | > 100 µM |  |  |  |  |  | 0.742 µM |  | 
CC1CCC2(NC1)OC1CC3C4CC=C5CC(O)CCC5(C)C4CCC3(C)C1C2C (stereo not drawn) |  | > 100 | 22.3 µM and 5.29 µM | 58.8 µM and 53.7 µM | 19.9 µM and 4.93 µM | 57.3 µM and > 63.8 µM | 18.2 µM and 6.3 µM | 37.8 µM and 13.8 µM | 10.6 µM and 5.16 µM | 35.9 µM and 49 µM |  | > 100 µM | 14 µM and 6.75 µM | 47.4 µM and 64.4 µM |  | 92.7 µM and > 64.3 µM | 27.4 µM and 9.34 µM | 92.4 µM and 46.2 µM | 28 µM and 8.98 µM | > 100 µM and 32.5 µM
COc1ccc(NC(=O)/C(=C/c2ccccc2)C(C)=O)cc1 |  | > 100 |  | 24.6 µM |  | 27.8 µM |  | 29 µM |  | 51.5 µM |  | 62.5 µM |  | 27.5 µM |  | 28.6 µM |  | 32.3 µM |  | 29.9 µM
C=CCn1c(C)nc2ccc(Nc3nc(Nc4ccc(F)cc4)nc4ccccc34)cc21 | 3.13 | 11.9 | 2.06 µM | 5.81 µM | 4.36 µM | 23 µM | 4.53 µM | 19.3 µM | 3.05 µM | 13.6 µM | 3.11 µM | 14.5 µM | 4.07 µM | 16.4 µM | 6.08 µM | 20.3 µM |  |  | 5.04 µM | 17.8 µM
CCC1CC2C(=O)N(c3ccccc3)C(=O)C2c2[nH]c3ccccc3c21 (stereo not drawn) |  | > 100 |  | 25.6 µM |  | 47.8 µM |  | > 100 µM |  | 35.2 µM |  | 64.6 µM |  | > 100 µM |  | 29.8 µM |  |  |  | 44.9 µM
N/N=C1\C(=O)N(C2CCCCCC2)C(=O)C1C(=O)NC1CCCCCC1 (stereo not drawn) |  | > 100 |  | > 100 µM |  |  |  | 42 µM |  | > 100 µM |  | > 100 µM |  | > 100 µM |  | > 100 µM |  | > 10 µM |  | > 100 µM
O=C(O)c1ccc(CI)cc1 |  | 74.6 |  | 27.4 µM |  |  |  | 32.7 µM |  | 37.3 µM |  | 31.7 µM |  |  |  | 21.6 µM |  | 36.1 µM |  | 23.3 µM
COC12CCC(=O)C=C1c1ccccc1N2C(C)=O (stereo not drawn) |  | > 100 |  | > 100 µM |  |  |  | > 100 µM |  | > 100 µM |  | > 100 µM |  | > 100 µM |  | > 100 µM |  | > 100 µM |  | > 100 µM
O=C(O)c1ccc(NCn2nc(-c3ccccc3O)oc2=S)cc1 | 40.7 | > 100 |  |  | 19.9 µM | 38.3 µM | > 100 µM | > 100 µM | > 100 µM | > 100 µM | 40.5 µM | > 100 µM | > 100 µM | > 100 µM | > 100 µM | > 100 µM | 47.2 µM | > 100 µM | > 100 µM | > 100 µM
COc1ccc(-c2cs/c(=N\N=C\c3ccc(O)cc3O)n2/N=C/c2ccc(O)cc2O)cc1 | 2.62 | > 100 | 2.17 µM | 7.12 µM | 1.76 µM | 3.68 µM | 1.5 µM | 3.2 µM | 2.47 µM | 6.63 µM | 2.01 µM | 4.43 µM | 1.98 µM | 4.6 µM | 1.71 µM | 3.33 µM |  |  | 1.75 µM | 3.67 µM
CC(C)(C)c1cc(C(O)(C(F)(F)F)C(F)(F)F)c2c(c1)C(C(F)(F)F)(C(F)(F)F)OC(C)(C(C)(C)C)N2 (stereo not drawn) |  | 12.7 |  | > 100 µM |  |  |  | 21 µM |  |  |  | 9.25 µM |  | > 100 µM |  | 16.9 µM |  |  |  | 9.18 µM
N#Cc1ccccc1C(Cl)(Cl)c1cnccn1 |  | > 100 |  | > 100 µM |  | 61 µM |  | > 100 µM |  | 77 µM |  | > 100 µM |  | > 100 µM |  | > 100 µM |  | > 100 µM |  | 
CCCCCCCCOC(=O)CC[C@@H](C)[C@H]1CC[C@H]2[C@@H]3[C@H](OC(=O)CCN)C[C@@H]4C[C@H](OC(=O)CCN)CC[C@]4(C)[C@H]3C[C@H](OC(=O)CCN)[C@]12C |  |  | 6.31 µM | 28.5 µM | 2.23 µM | 4.51 µM | 21.9 µM | 42 µM | 2.14 µM | 4.62 µM | 3.18 µM | 10.6 µM | 3.04 µM | 7.51 µM | 3.51 µM | 15.9 µM | 2.71 µM | 7.14 µM | 14.6 µM | 35.4 µM
C/C=C(/I)CBr |  | > 100 |  | 49.3 µM |  | 36.2 µM |  | 34 µM |  | 45.4 µM |  | 37.4 µM |  |  |  |  |  | 43.4 µM |  | 
Cc1ccc(NC(=O)CCc2nc(N)nc(N)c2-c2ccccc2)cc1C |  | > 100 |  | > 100 µM |  |  |  | > 100 µM |  | > 100 µM |  | > 100 µM |  | > 100 µM |  | > 100 µM |  | > 100 µM |  | > 100 µM
CC1=C[C@H]2c3c([nH]c4ccccc34)C(c3c[nH]c4ccccc34)[C@H]2CC1 (stereo partly drawn) |  | 12.7 |  |  |  | 5.83 µM |  |  |  | 28 µM |  | 8.21 µM |  |  |  |  |  |  |  | 

From PubChem BioAssay (NCI)
